From patent publication US10183950B2, “Thienopyrimidine inhibitors of atypical protein kinase C” (Cancer Research Technology Limited, priority 2011, dated 2019)

Biological target: T1, full-length human PKCι (Homo sapiens, UniProt P41743)
T1 construct: Recombinant, full-length human PKCι expressed in Sf21 insect cells is also commercially available; purchased; host or cells: Sf21 insect cells
T1 sequence (P41743 1-596): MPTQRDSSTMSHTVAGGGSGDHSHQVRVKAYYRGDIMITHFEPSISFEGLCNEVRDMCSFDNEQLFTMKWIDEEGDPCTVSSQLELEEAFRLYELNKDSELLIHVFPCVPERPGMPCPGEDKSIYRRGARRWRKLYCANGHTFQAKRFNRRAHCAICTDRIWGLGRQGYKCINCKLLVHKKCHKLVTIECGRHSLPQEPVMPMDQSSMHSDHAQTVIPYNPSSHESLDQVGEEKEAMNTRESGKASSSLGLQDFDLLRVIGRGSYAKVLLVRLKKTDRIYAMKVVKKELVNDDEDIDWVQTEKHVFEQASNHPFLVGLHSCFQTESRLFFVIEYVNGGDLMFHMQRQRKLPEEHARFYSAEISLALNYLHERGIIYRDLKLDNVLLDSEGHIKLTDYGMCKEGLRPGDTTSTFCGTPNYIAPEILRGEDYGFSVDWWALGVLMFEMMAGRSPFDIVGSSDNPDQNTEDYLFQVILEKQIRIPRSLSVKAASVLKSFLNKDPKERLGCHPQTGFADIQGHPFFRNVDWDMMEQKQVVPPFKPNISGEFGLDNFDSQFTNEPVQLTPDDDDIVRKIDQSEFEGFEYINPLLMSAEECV
Experiment: PKCι IC50 IMAP fluorescence polarisation assay, full-length enzyme
Assay type: biochemical
Details: full length PKCi at 15 μM ATP; read-out: IC50 in IMAP assay against full length PKCi (Activity)
Experimental: Assays are based on the ability of PKCι to phosphorylate a commercially available peptide substrate in vitro. […] Recombinant, full-length human PKCι expressed in Sf21 insect cells is also commercially available. Recombinant, kinase-domain human PKCι is expressed and purified in-house.
The procedure below explains how dose response curves for inhibitors of PKCι are obtained.
Compounds to be tested are dissolved in 100% DMSO. […] 1 μl is plated into 384 well black low-binding flat bottomed assay plates which are used immediately. Dilutions and additions of compound to assay plates are carried out using Matrix WellMate® and Matrix PlateMate® Plus liquid handling systems.
The final concentration of peptide substrate in the assay is 100 nM. […] Relevant controls are included, namely no compound and no enzyme. […] The reaction is allowed to incubate for 60 minutes at room temperature, before the reaction is stopped and developed by the addition of 20 μl IMAP™ development reagent (Molecular Devices). IMAP development reagent consists of 0.25% (v/v) IMAP progressive binding reagent, 17% (v/v) IMAP progressive binding buffer A and 3% (v/v) IMAP progressive binding buffer B. The plates are then incubated for 2 hours at room temperature before being read using an appropriate plate reader, for example a Molecular Devices HT Analyst or a BMG Pherastar.

| SMILES | IC50 |
| --- | --- |
| N[C@H](CNc1nc(-c2ccncc2)nc2sc3c(c12)CCCC3)Cc1ccc(O)cc1 [compound 55, 4-[(S)-2-Amino-3-(2-pyridin-4-yl-5,6,7,8-tetrahydro-benzo[4,5]thieno[2,3-d]pyrimidin-4-ylamino)-propyl]-phenol] | 1 to 10 µM |
| N[C@H](CNc1nc(-c2ccncc2)nc2sc3c(c12)CCCC3)Cc1ccncc1 [compound 56, (S)-3-Pyridin-4-yl-N*1*-(2-pyridin-4-yl-5,6,7,8-tetrahydro-benzo[4,5]thieno[2,3-d]pyrimidin-4-yl)-propane-1,2-diamine] | 1 to 10 µM |
| N[C@H](CNc1nc(-c2ccncc2)nc2sc3c(c12)CCCC3)Cc1cccnc1 [compound 57, (S)-3-Pyridin-3-yl-N*1*-(2-pyridin-4-yl-5,6,7,8-tetrahydro-benzo[4,5]thieno[2,3-d]pyrimidin-4-yl)-propane-1,2-diamine] | 0.1 to 1 µM |
| N[C@H](CNc1nc(-c2ccncc2)nc2sc3c(c12)CCCC3)Cc1ccccn1 [compound 58, (S)-3-Pyridin-2-yl-N*1*-(2-pyridin-4-yl-5,6,7,8-tetrahydro-benzo[4,5]thieno[2,3-d]pyrimidin-4-yl)-propane-1,2-diamine] | 1 to 10 µM |
| N[C@H](CNc1nc(-c2ccncc2)nc2sc3c(c12)CCCC3)Cc1cscn1 [compound 59, (S)-N*1*-(2-Pyridin-4-yl-5,6,7,8-tetrahydro-benzo[4,5]thieno[2,3-d]pyrimidin-4-yl)-3-thiazol-4-yl-propane-1,2-diamine] | 0.1 to 1 µM |
| CC(C)(C)C[C@H](N)CNc1nc(-c2ccncc2)nc2sc3c(c12)CCCC3 [compound 60, (S)-4,4-Dimethyl-N*1*-(2-pyridin-4-yl-5,6,7,8-tetrahydro-benzo[4,5]thieno[2,3-d]pyrimidin-4-yl)-pentane-1,2-diamine] | 1 to 10 µM |
| N[C@@H](CNc1nc(-c2ccncc2)nc2sc3c(c12)CCCC3)Cc1csc2ccccc12 [compound 61, (R)-3-Benzo[b]thiophen-3-yl-N*1*-(2-pyridin-4-yl-5,6,7,8-tetrahydro-benzo[4,5]thieno[2,3-d]pyrimidin-4-yl)-propane-1,2-diamine] | 1 to 10 µM |
| c1cc(-c2nc(NC[C@H]3CCCCN3)c3c4c(sc3n2)CCCC4)ccn1 [compound 62, (R)-1-Piperidin-2-ylmethyl-(2-pyridin-4-yl-5,6,7,8-tetrahydro-benzo[4,5]thieno[2,3-d]pyrimidin-4-yl)-amine] | 1 to 10 µM |
| COc1ccccc1C[C@H](N)CNc1nc(-c2ccncc2)nc2sc3c(c12)CCSC3 [compound 64, (S)-3-(2-Methoxy-phenyl)-N*1*-(2-pyridin-4-yl-5,8-dihydro-6H-thio-pyrano[4′,3′:4,5]thieno[2,3-d]pyrimidin-4-yl)-propane-1,2-diamine] | 10 to 40 µM |
| N[C@H](CNc1nc(-c2ccncc2)nc2sc3c(c12)CCCC3)Cc1ccccc1O [compound 65, 2-[(S)-2-amino-3-(2-pyridin-4-yl-5,6,7,8-tetrahydro-benzo[4,5]thieno[2,3-d]pyrimidin-4-ylamino)-propyl]-phenol] | < 0.1 µM |
| N[C@H](CNc1nc(-c2ccncc2)nc2sc3c(c12)CCCC3)Cc1cccc(O)c1 [compound 66, 3-[(S)-2-Amino-3-(2-pyridin-4-yl-5,6,7,8-tetrahydro-benzo[4,5]thieno[2,3-d]pyrimidin-4-ylamino)-propyl]-phenol] | 0.1 to 1 µM |
| N[C@H](CNc1nc(-c2ccncc2)nc2sc3c(c12)CCN(C(=O)c1ccccc1)C3)Cc1ccccc1 [compound 72, [4-((S)-2-Amino-3-phenyl-propylamino)-2-pyridin-4-yl-5,8-dihydro-6H-pyrido[4′,3′:4,5]thieno[2,3-d]pyrimidin-7-yl]-phenyl-methanone] | 1 to 10 µM |
| N[C@@H](CNc1nc(-c2ccncc2)nc2sc3c(c12)CCN(C(=O)c1ccccc1)C3)Cc1ccccc1 [compound 73, [4-((R)-2-Amino-3-phenyl-propylamino)-2-pyridin-4-yl-5,8-dihydro-6H-pyrido[4′,3′:4,5]thieno[2,3-d]pyrimidin-7-yl]-phenyl-methanone] | 1 to 10 µM |
| C[C@H](N)CNc1nc(-c2ccncc2)nc2sc3c(c12)CCN(C(=O)OC(C)(C)C)C3 [compound 96, 4-((S)-2-Amino-propylamino)-2-pyridin-4-yl-5,8-dihydro-6H-pyrido[4′,3′:4,5]thieno[2,3-d]pyrimidine-7-carboxylic acid tert-butyl ester] | 10 to 40 µM |
| N[C@H](CNc1nc(-c2ccncc2F)nc2sc3c(c12)CCCC3)Cc1ccccc1 [compound 101, (S)-N*1*-[2-(3-Fluoro-pyridin-4-yl)-5,6,7,8-tetrahydro-benzo[4,5]thieno[2,3-d]pyrimidin-4-yl]-3-phenyl-propane-1,2-diamine] | 1 to 10 µM |
| COc1cnccc1-c1nc(NC[C@@H](N)Cc2ccccc2)c2c3c(sc2n1)CCCC3 [compound 102, (S)—N*1*-[2-(3-methoxy-pyridin-4-yl)-5,6,7,8-tetrahydro-benzo[4,5]thieno[2,3-d]pyrimidin-4-yl]-3-phenyl-propane-1,2-diamine] | 10 to 40 µM |
| N[C@H](CNc1nc(-c2ccncc2O)nc2sc3c(c12)CCCC3)Cc1ccccc1 [compound 103, 4-[4-((S)-2-Amino-3-phenyl-propylamino)-5,6,7,8-tetrahydro-benzo[4,5]thieno[2,3-d]pyrimidin-2-yl]-pyridin-3-ol] | 1 to 10 µM |

Further lines, results first:

| IC50 | SMILES |
| --- | --- |
| 1 to 10 µM | N[C@@H](CNc1nc(-c2ccncc2)nc2sc3c(c12)CCCCC3)Cc1ccccc1 [compound 70, (R)-3-Phenyl-N*1*-(2-pyridin-4-yl-6,7,8,9-tetrahydro-5H-10-thia-1,3-diaza-benzo[a]azulen-4-yl)-propane-1,2-diamine] |
| 10 to 40 µM | CC1(C)CCc2c(sc3nc(-c4ccncc4)nc(NC[C@@H](N)Cc4ccccc4)c23)C1 [compound 77, (S)-N*1*-(7,7-Dimethyl-2-pyridin-4-yl-5,6,7,8-tetrahydro-benzo[4,5]thieno[2,3-d]pyrimidin-4-yl)-3-phenyl-propane-1,2-diamine] |
| 1 to 10 µM | N[C@H](CNc1nc(-c2ccncc2)nc2sc3c(c12)CCC1(C3)OCCO1)Cc1ccccc1 [compound 78, (S)-3-Phenyl-N*1*-*-1,4-Dioxa-spiro[7.7]-(2-pyridin-4-yl-5,6,7,8-tetrahydro-benzo[4,5]thieno[2,3-d]pyrimidin-4-yl)-propane-1,2-diamine] |
| 0.1 to 1 µM | N[C@@H](CNc1nc(-c2ccncc2)nc2sc3c(c12)CCC1(C3)OCCO1)Cc1ccccc1 [compound 79, (R)-3-Phenyl-N*1*-*-1,4-Dioxa-spiro[7.7]-(2-pyridin-4-yl-5,6,7,8-tetrahydro-benzo[4,5]thieno[2,3-d]pyrimidin-4-yl)-propane-1,2-diamine] |
| 0.1 to 1 µM | N[C@H](CNc1nc(-c2ccncc2)nc2sc3c(c12)CCSC3)Cc1ccccc1 [compound 80, (S)-3-Phenyl-N*1*-(2-pyridin-4-yl-5,8-dihydro-6H-thiopyrano[4′,3′:4,5]thieno[2,3-d]pyrimidin-4-yl)-propane-1,2-diamine] |
| 1 to 10 µM | N[C@@H](CNc1nc(-c2ccncc2)nc2sc3c(c12)CCSC3)Cc1ccccc1 [compound 81, (R)-3-Phenyl-N*1*-(2-pyridin-4-yl-5,8-dihydro-6H-thiopyrano[4′,3′:4,5]thieno[2,3-d]pyrimidin-4-yl)-propane-1,2-diamine] |
| 1 to 10 µM | N[C@H](CNc1nc(-c2ccncc2)nc2sc3c(c12)CCOC3)Cc1ccccc1 [compound 82, (S)-3-Phenyl-N*1*-(2-pyridin-4-yl-5,8-dihydro-6H-pyrano[4′,3′:4,5]thieno[2,3-d]pyrimidin-4-yl)-propane-1,2-diamine] |
| 10 to 40 µM | N[C@@H](CNc1nc(-c2ccncc2)nc2sc3c(c12)CCOC3)Cc1ccccc1 [compound 83, (R)-3-Phenyl-N*1*-(2-pyridin-4-yl-5,8-dihydro-6H-pyrano[4′,3′:4,5]thieno[2,3-d]pyrimidin-4-yl)-propane-1,2-diamine] |
| 1 to 10 µM | CC(C)(C)OC(=O)N1CCc2c(sc3nc(-c4ccncc4)nc(NC[C@@H](N)Cc4ccccc4)c23)C1 [compound 90, 4-((S)-2-Amino-3-phenyl-propylamino)-2-pyridin-4-yl-5,8-dihydro-6H-pyrido[4′,3′:4,5]thieno[2,3-d]pyrimidine-7-carboxylic acid tert-butyl ester] |
